In patent publication US12371454B2, “Cyclic peptide compound having Kras inhibitory action” (priority 2019, dated 2025):
pIC50: −log10 of the molar value. Starred links: 1 amine or outer side, 2 acyl side, 3 side chain; linkers in the order of their positions; H or OH if unused. Positions of bridges follow the written chain, without caps; N, C: chain ends. Non-standard residues stand in square brackets, D forms with d. Residues, ends and D or L forms follow the SMILES beside them. *: point of attachment. hPhe(3-Cl-4-CF3) = N[C@@H](CCc1ccc(C(F)(F)F)c(Cl)c1)C(=O)O; X28 = CCCCOc1cc(CC[C@H](N[*:1])C(=O)[*:2])cc(Cl)c1Cl; NMePhe(4-CF3) = CN[C@@H](Cc1ccc(C(F)(F)F)cc1)C(=O)O; NMeAbu(4,4,4-F3) = CN[C@@H](CC(F)(F)F)C(=O)O; NMePhe(4-Cl) = CN[C@@H](Cc1ccc(Cl)cc1)C(=O)O; NMePhe(4-Me) = CN[C@@H](Cc1ccc(C)cc1)C(=O)O; NMeAla(cPent) = CN[C@@H](CC1CCCC1)C(=O)O; NMePhe(2-F) = CN[C@@H](Cc1ccccc1F)C(=O)O; NMeGly(cPent) = CN[C@H](C(=O)O)C1CCCC1; Phe(3-I) = N[C@@H](Cc1cccc(I)c1)C(=O)O; NMeY = CN[C@@H](Cc1ccc(O)cc1)C(=O)O; NMeCha = CN[C@@H](CC1CCCCC1)C(=O)O; NMeChg = CN[C@H](C(=O)O)C1CCCCC1; Gly(cBu) = N[C@H](C(=O)O)C1CCC1; N(CH2CH2)2CF2 = FC1(F)CCN(*)CC1; NMeD = CN[C@@H](CC(=O)O)C(=O)O; NMeL = CN[C@@H](CC(C)C)C(=O)O; NMeV = CN[C@H](C(=O)O)C(C)C; d(β3hA) = C[C@@H](N)CC(=O)O; Iva = CC[C@](C)(N)C(=O)O; Morpholide = C1CN(*)CCO1; NMeA = CN[C@@H](C)C(=O)O; Nle = CCCC[C@H](N)C(=O)O; Piperidide = C1CCN(*)CC1; Pyrrolidide = C1CCN(*)C1; Ac5c = NC1(C(=O)O)CCCC1; Aze = O=C(O)[C@@H]1CCN1; Sar = CNCC(=O)O

Experiments:
[1] = target: T1, Kras and SOS1 (biotin-tagged human Kras loaded with GDP, His-tagged human SOS1) (Homo sapiens, UniProt P01116, G12D); test: Protein-protein interaction inhibition between Kras and SOS1 (KrasGl2D-SOS PPI) using AlphaScreen; assay type: binding; details: AlphaScreen; biotin-tagged human Kras loaded with GDP, His-tagged human SOS1; read-out: KRAS G12D-SOS PPI IC50
T1 construct: made in house; host or cells: E. coli (stated for Kras only)
Summary of the method: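 Energy transfer from nickel-chelate donor beads bound to His-SOS1 to streptavidin acceptor beads bound to biotin-Kras, expressed in E. coli and loaded with GDP after purification, was monitored. Donors were excited at 680 nm; singlet oxygen reaching acceptors gave emission read at 520-620 nm.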

[2] = tested on: Human pancreatic cancer cell line AsPC-1; test: Measurement of AsPC-1 cell growth inhibition (AsPC-1 CGI); assay type: cell-based; details: 96 h
Summary of the method: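 AsPC-1 cells in 15% FBS RPMI-1640 were exposed to test compound for 96 hours at 37° C, with CellTiter-Glo as endpoint.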

T1 sequence (P01116 1-188 isoform P01116-2 G12D): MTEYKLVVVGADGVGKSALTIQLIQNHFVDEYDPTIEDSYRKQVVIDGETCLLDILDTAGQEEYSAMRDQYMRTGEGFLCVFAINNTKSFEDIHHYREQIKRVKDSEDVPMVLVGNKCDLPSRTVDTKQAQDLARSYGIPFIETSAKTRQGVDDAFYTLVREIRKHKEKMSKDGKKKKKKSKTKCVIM

| SMILES | pIC50 [1] | pIC50 [2] |
| --- | --- | --- |
| CC[C@H](C)[C@@H]1NC(=O)[C@H](CC(C)C)N(C)C(=O)C[C@@H](C(=O)N(C)C)N(C)C(=O)[C@H](C2CCCC2)N(C)C(=O)C2(CCCC2)NC(=O)[C@H](CC(=O)N2CCC(F)(F)CC2)N(C)C(=O)[C@H](CCc2ccc(C(F)(F)F)c(Cl)c2)NC(=O)CN(C)C(=O)[C@H](CC2CCCCC2)N(C)C(=O)[C@@H]2CCN2C(=O)[C@H](C)N(C)C1=O [Compound 1955] ([NMeL]I[NMeA][Aze][NMeCha][Sar][hPhe(3-Cl-4-CF3)][NMeD](N(CH2CH2)2CF2)[Ac5c][NMeGly(cPent)][NMeD]-NMe2; lactam N-11) | 8.82 | 6.30 to 7.00 |
| CCCC[C@@H]1NC(=O)[C@H](Cc2cccc(I)c2)NC(=O)CN(C)C(=O)[C@H](Cc2ccc(Cl)cc2)N(C)C(=O)CN(C)C(=O)CN(C)C(=O)[C@H]([C@@H](C)CC)NC(=O)[C@H](CC(C)C)N(C)C(=O)C[C@@H](C(=O)N2CCCCC2)N(C)C(=O)[C@H](CC(C)C)NC(=O)[C@H](Cc2ccccc2F)N(C)C1=O [Compound 1035] ([NMeL]I[Sar][Sar][NMePhe(4-Cl)][Sar][Phe(3-I)][Nle][NMePhe(2-F)]L[NMeD]-Piperidide; lactam N-11) | 7.96 | 6.30 to 7.00 |
| CC(C)C[C@H]1C(=O)N[C@@H](C2CCC2)C(=O)N(C)CC(=O)N(C)CC(=O)N(C)[C@@H](CC2CCCCC2)C(=O)N(C)CC(=O)N[C@@H](CCc2ccc(C(F)(F)F)c(Cl)c2)C(=O)N2CCC[C@H]2C(=O)NC2(CCCC2)C(=O)N(C)[C@@H](C2CCCCC2)C(=O)N(C)[C@H](C(=O)N2CCOCC2)CC(=O)N1C [Compound 1906] ([NMeL][Gly(cBu)][Sar][Sar][NMeCha][Sar][hPhe(3-Cl-4-CF3)]P[Ac5c][NMeChg][NMeD]-Morpholide; lactam N-11) | 9.26 | 7.00 to 7.30 |
| CC[C@H](C)[C@@H]1NC(=O)[C@H](CC(F)(F)F)N(C)C(=O)C[C@@H](C(=O)N2CCCC2)N(C)C(=O)[C@H](C2CCCCC2)N(C)C(=O)C2(CCCC2)NC(=O)[C@@H]2CCCN2C(=O)[C@H](CCc2ccc(C(F)(F)F)c(Cl)c2)NC(=O)CN(C)C(=O)[C@H](Cc2ccc(C)cc2)N(C)C(=O)CN(C)C(=O)CN(C)C1=O [Compound 814] ([NMeAbu(4,4,4-F3)]I[Sar][Sar][NMePhe(4-Me)][Sar][hPhe(3-Cl-4-CF3)]P[Ac5c][NMeChg][NMeD]-Pyrrolidide; lactam N-11) | 9.39 | 7.30 to 7.70 |
| CC[C@H](C)[C@@H]1NC(=O)[C@H](CC(C)C)N(C)C(=O)C[C@@H](C)NC(=O)[C@H](C(C)C)N(C)C(=O)C2(CCCC2)NC(=O)[C@@H]2CCCN2C(=O)[C@H](CCc2ccc(C(F)(F)F)c(Cl)c2)NC(=O)CN(C)C(=O)[C@H](Cc2ccc(OC)cc2)N(C)C(=O)CN(C)C(=O)CN(C)C1=O [Compound 1605] (cyclo([Ac5c][NMeV][d(β3hA)][NMeL]I[Sar][Sar][NMeY](Me)[Sar][hPhe(3-Cl-4-CF3)]P)) | 7.92 | 6.30 to 7.00 |
| CC[C@H](C)[C@@H]1NC(=O)[C@H](CC2CCCC2)N(C)C(=O)C[C@@H](C(=O)N2CCCCC2)N(C)C(=O)[C@H](C2CCCCC2)N(C)C(=O)C2(CCCC2)NC(=O)[C@@H]2CCCN2C(=O)[C@H](CCc2ccc(C(F)(F)F)c(Cl)c2)NC(=O)CN(C)C(=O)[C@H](CC2CCCCC2)N(C)C(=O)CN(C)C(=O)CN(C)C1=O [Compound 1663] ([NMeAla(cPent)]I[Sar][Sar][NMeCha][Sar][hPhe(3-Cl-4-CF3)]P[Ac5c][NMeChg][NMeD]-Piperidide; lactam N-11) | 8.80 | 6.30 to 7.00 |
| CCCCOc1cc(CC[C@@H]2NC(=O)CN(C)C(=O)[C@H](CC3CCCCC3)N(C)C(=O)CN(C)C(=O)CN(C)C(=O)[C@H]([C@@H](C)CC)NC(=O)[C@H](C)N(C)C(=O)C[C@@H](C(=O)N3CCCCC3)N(C)C(=O)[C@H](C3CCCCC3)N(C)C(=O)C3(CCCC3)NC(=O)[C@@H]3CCCN3C2=O)cc(Cl)c1Cl [Compound 2066] ([NMeA]I[Sar][Sar][NMeCha][Sar][X28]P[Ac5c][NMeChg][NMeD]-Piperidide; lactam N-11) | 7.20 | < 6.30 |
| CC[C@H](C)[C@@H]1NC(=O)[C@H](CC(C)C)N(C)C(=O)C[C@@H](C(=O)N2CCCCC2)N(C)C(=O)[C@H](C(C)C)N(C)C(=O)[C@](C)(CC)NC(=O)[C@@H]2CCCN2C(=O)[C@H](CCc2ccc(C(F)(F)F)c(Cl)c2)NC(=O)CN(C)C(=O)[C@H](CC2CCCCC2)N(C)C(=O)CN(C)C(=O)CN(C)C1=O [Compound 620] ([NMeL]I[Sar][Sar][NMeCha][Sar][hPhe(3-Cl-4-CF3)]P[Iva][NMeV][NMeD]-Piperidide; lactam N-11) | 7.96 | 6.30 to 7.00 |
| CC[C@H](C)[C@@H]1NC(=O)[C@H](C)N(C)C(=O)C[C@@H](C)NC(=O)[C@H](C2CCCC2)N(C)C(=O)C2(CCCC2)NC(=O)[C@@H]2CCCN2C(=O)[C@H](CCc2ccc(C(F)(F)F)c(Cl)c2)NC(=O)CN(C)C(=O)[C@H](Cc2ccc(C(F)(F)F)cc2)N(C)C(=O)CN(C)C(=O)CN(C)C1=O [Compound 1523] (cyclo([Ac5c][NMeGly(cPent)][d(β3hA)][NMeA]I[Sar][Sar][NMePhe(4-CF3)][Sar][hPhe(3-Cl-4-CF3)]P)) | 9.12 | 6.30 to 7.00 |
